Assays:
Type in all cases: cell-based
TG-2 [1] = assay: TG-2 colorimetric microassay (transamidase activity) in lysate of treated mouse scleral fibroblasts; conditions: mouse scleral fibroblasts, 0.1, 1, 10 and 100 μM for 5 days; concentration-dependent
Procedure: (§1) All cells used in examples described herein were between passages 2-4. Passaged cells were plated at a concentration of 2×10^5/mL into 6 well plates containing DMEM with 10% FBS. […] Old media was removed from wells and 1 mL of drug was added with fresh full medium and incubated at 37° C. Fresh drugs were replaced daily consecutively for the next 5 days to avoid oxidation. The drugs/media was removed and wells were washed twice with 1×PBS. 200 μl of RIPA lysis buffer was added per well and incubated for 5 minutes and cells were scrapped into an eppendorf tube. The cells were stored at −20° C. until sonication. The cells were sonicated on ice thrice at 20% output power for 5 seconds each time and rested 1 minute in between each turn. Cell debris was spun down at 12000 rpm for 20 minutes. The supernatant was poured into a new eppendorf tube and cell concentrations were determined using the Dc Protein assay Kit (Bio-Rad, MA). Passaged cells were plated at a concentration of 1×10^5 into 6 well plates containing DMEM with 10% FBS. […] Freshly prepared muscarinic agents' at base line, 0.1, 1, 10 and 100 μM concentrations were added for 5 days (Table 2). The culture medium was removed and fresh medium containing the same muscarinic drug added every day to avoid drug changes such as atropine oxidation. Cell lysate was collected for relative quantitative (q) PCR and protein analysis at day 5.
(§2) This assay was designed to assess the cross-linking activity of TG-2 between two proteins. TG activity was measured with TG-2 colorimetric Microassay kit (TG-Covtest, Covalab, Cambridge, UK). 150-200 μg of total protein was used per well for the TG-2 assay. Transglutaminase standards (Sigma) were used as a positive control. EDTA was used to inhibit the enzyme activity as a negative control.
(§3) The approximate volume of reagents to use, the wavelengths to use to read absorbance, the incubation times were determined from a previous study that have carried out experiments with similar principles as described in Perez Alea M, Kitamura M, Martin G, Thomas V, Hitomi K, El Alaoui S., “Development of an isoenzyme-specific colorimetric assay for tissue transglutaminase 2 cross-linking activity”, Anal Biochem. 2009 Jun. 15; 389(2):150-6, Epub 2009 March 24. All reagents used and protein coated plates were part of the kit. Biotin cadaverine was reconstituted with 6 ml of deionized water and 90 μl was added into each well of the 96 well plate that comes coated with CBZ-GLN-GLY. The rest of the steps were followed as in the manufacturer's instructions and finally absorbance was read at 450 nm using a microplate reader (TECAN, Austria). All incubations were performed with gentle shaking on a laboratory orbital shaker.
(§4) The TG-2 colorimetric assay serves as a high throughput and quantitative assay to assess transamidase activity. […] In vivo studies with these drugs were also conducted to determine the effect on myopia development (see FIGS. 14 and 15).

TG-2 [2] = assay: TG-2 colorimetric microassay (transamidase activity) in lysate of treated human scleral fibroblasts; conditions: human scleral fibroblasts, 0.1, 1, 10 and 100 μM for 5 days; concentration-dependent
Procedure: as §1, §2, §3, §4

cultured SF cells = assay: effect of TG-2 inhibitors on cultured scleral fibroblast growth (XCELLigence); conditions: for SF cell growth and cell numbers: 0.1 μM, 5 days; for SF cell growth and cell numbers at higher concentrations: above 0.1 μM, concentration dependent manner
Procedure: To test the effect of TG-2 inhibitors on cultured scleral fibroblast growth, cultured SF cells at passage 4 were treated with TG-2 inhibitors at baseline, 0.1, 1, 10 and 100 μM for 5 days. The SF cell growth was monitored by XCELLigence cell impedance.

Compound	transamidase activity of endogenous cellular TG-2 (TG-2 [1])	transamidase activity of endogenous cellular TG-2 (TG-2 [2])	cell morphology (cultured SF cells)	SF cell growth and cell numbers (cultured SF cells)	SF cell growth and cell numbers at higher concentrations (cultured SF cells)
CN1CCN(CC(=O)N2c3ccccc3C(=O)Nc3cccnc32)CC1 [pirenzepine]	reduced	reduced			
CC(=O)CSc1n(C)cc[n+]1C.[Cl-] [D003]			No change	significantly reduced	further reduced
CCN(CC)CC1CCCCN1CC(=O)N1c2ccccc2C(=O)Nc2cccnc21 (stereo not drawn) [AFDX-116]	reduced	reduced			
TAMRA-DON [R002]				significantly reduced	further reduced

Reference: patent US20140050779A1, “[…]-2 INHIBITORS AND USES THEREOF” (SINGAPORE HEALTH SERVICES PTE. LTD., priority 2011, published 2014)
